In ChEMBL document CHEMBL1130829, “Inhibition of human cytomegalovirus protease N(o) with monocyclic beta-lactams” (Bioorg Med Chem Lett, 1998):

What was measured:
[1] = target: T1, Capsid scaffolding protein (Human cytomegalovirus (strain AD169) (HHV-5) (Human herpesvirus 5), UniProt P16753); assay: Inhibitory activity against human cytomegalovirus (HCMV) protease; set-up: species or system Human herpesvirus 5 strain AD169
T1 sequence (P16753 whole entry): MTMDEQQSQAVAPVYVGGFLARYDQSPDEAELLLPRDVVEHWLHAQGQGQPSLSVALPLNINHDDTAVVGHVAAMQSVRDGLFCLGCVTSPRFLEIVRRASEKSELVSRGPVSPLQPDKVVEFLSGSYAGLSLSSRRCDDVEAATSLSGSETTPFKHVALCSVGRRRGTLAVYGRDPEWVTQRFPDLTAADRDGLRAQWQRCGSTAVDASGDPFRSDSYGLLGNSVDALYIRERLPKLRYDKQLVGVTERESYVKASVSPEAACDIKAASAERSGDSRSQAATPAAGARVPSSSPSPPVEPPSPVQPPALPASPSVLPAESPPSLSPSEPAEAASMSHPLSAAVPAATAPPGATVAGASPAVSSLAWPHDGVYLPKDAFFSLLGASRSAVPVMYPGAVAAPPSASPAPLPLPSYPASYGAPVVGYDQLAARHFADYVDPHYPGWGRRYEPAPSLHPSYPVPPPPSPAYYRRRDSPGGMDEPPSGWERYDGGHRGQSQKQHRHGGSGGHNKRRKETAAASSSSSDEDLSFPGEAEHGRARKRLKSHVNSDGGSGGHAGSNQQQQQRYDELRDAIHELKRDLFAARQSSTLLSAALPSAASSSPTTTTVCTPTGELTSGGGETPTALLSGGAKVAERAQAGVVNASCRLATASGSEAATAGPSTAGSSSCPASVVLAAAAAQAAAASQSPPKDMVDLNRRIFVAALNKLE

Neutrophil elastase = target: T2, Neutrophil elastase (Homo sapiens, UniProt P08246); assay: Inhibitory activity against human leukocyte elastase protease(HLE)
T2 sequence (P08246 whole entry): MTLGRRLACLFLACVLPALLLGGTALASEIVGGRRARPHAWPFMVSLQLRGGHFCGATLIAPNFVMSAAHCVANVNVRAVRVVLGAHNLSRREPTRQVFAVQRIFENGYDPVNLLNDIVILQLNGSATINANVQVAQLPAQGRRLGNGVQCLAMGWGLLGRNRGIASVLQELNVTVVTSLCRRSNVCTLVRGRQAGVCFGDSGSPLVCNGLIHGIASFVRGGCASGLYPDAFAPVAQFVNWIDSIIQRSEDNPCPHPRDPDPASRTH

Chymotrypsinogen B = Chymotrypsinogen B (Homo sapiens, UniProt P17538); assay: Inhibitory activity against alpha-chymotrypsin
Chain of Chymotrypsinogen B (P17538 34-164 limits assumed, other chains not shown): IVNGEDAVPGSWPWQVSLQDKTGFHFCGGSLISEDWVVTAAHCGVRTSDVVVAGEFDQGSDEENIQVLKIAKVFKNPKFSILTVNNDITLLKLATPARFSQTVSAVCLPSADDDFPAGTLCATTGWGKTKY
Chain of Chymotrypsinogen B (P17538 167-263 limits assumed, other chains not shown): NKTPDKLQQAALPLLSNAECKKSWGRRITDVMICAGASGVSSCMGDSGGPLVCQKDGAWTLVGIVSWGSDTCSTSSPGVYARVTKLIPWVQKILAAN

Cathepsin B = Cathepsin B (Homo sapiens, UniProt P07858); assay: Inhibitory activity against Cathepsin B

| SMILES | IC50 [1] | IC50 (Neutrophil elastase) | IC50 (Chymotrypsinogen B) | IC50 (Cathepsin B) |
| --- | --- | --- | --- | --- |
| C[C@@H](NC(=O)N1C(=O)CC1SCc1ccc(CC(=O)OC(C)(C)C)cc1)c1ccccc1 (stereo partly drawn) | 75 µM | > 75 µM | > 75 µM | > 75 µM |
| O=C1CC(SCc2ccccn2)N1C(=O)NCCOCc1ccccc1 (stereo not drawn) | 6.4 µM | > 75 µM | > 75 µM | > 75 µM |
| C[C@@H](NC(=O)N1C(=O)CC1SCCc1ccccc1)c1ccccc1 (stereo partly drawn) |  | > 75 µM | > 75 µM | > 75 µM |
| CC[C@@H](NC(=O)N1C(=O)[C@@H](C)[C@@H]1SCc1ccccn1)c1ccccc1 |  | < 0.15 µM | 1.7 µM | > 75 µM |
| C[C@@H](NC(=O)N1C(=O)CC1Sc1ccccc1)c1ccccc1 (stereo partly drawn) |  | > 75 µM | > 75 µM | > 75 µM |
| CC[C@H](NC(=O)N1C(=O)CC1SC[C@H](CC(C)C)NC(=O)[C@@H](NC(=O)CC(C)(C)C)C(C)(C)C)c1ccccc1 (stereo partly drawn) | 0.07 µM | > 75 µM | > 75 µM | > 75 µM |
| C[C@@H](NC(=O)N1C(=O)CC1SCC(=O)c1ccccc1)c1ccccc1 (stereo partly drawn) |  | > 75 µM | > 75 µM | > 75 µM |
| CC(C)C[C@@H](COC1CC(=O)N1C(=O)N[C@H](C)c1ccccc1)NC(=O)[C@@H](NC(=O)OC(C)(C)C)C(C)(C)C (stereo partly drawn) | 1.4 µM | > 75 µM | > 75 µM | > 75 µM |
| C[C@@H](NC(=O)N1C(=O)CC1SCc1ccccc1)c1ccccc1 (stereo partly drawn) | 2.4 µM | > 75 µM | > 75 µM | > 75 µM |
| CC(C)C[C@@H](COC1CC(=O)N1C(=O)N[C@@H](C)c1ccccc1)NC(=O)[C@@H](NC(=O)OC(C)(C)C)C(C)(C)C (stereo partly drawn) | 0.3 µM | > 75 µM | > 75 µM | > 75 µM |
| CC(C)C[C@@H](COC1CC(=O)N1)NC(=O)[C@@H](NC(=O)OC(C)(C)C)C(C)(C)C (stereo partly drawn) | > 300 µM |  |  |  |
| O=C1CC(SCc2ccccn2)N1C(=O)N[C@H](CO)c1ccccc1 (stereo partly drawn) |  | > 75 µM | > 75 µM | > 75 µM |
| C[C@@H](NC(=O)N1C(=O)CC1SCc1ccncc1)c1ccccc1 (stereo partly drawn) |  | > 75 µM | > 75 µM | > 75 µM |
| CC[C@@H](NC(=O)N1C(=O)CC1SCc1ccccn1)c1ccccc1 (stereo partly drawn) |  | > 75 µM | > 75 µM | > 75 µM |
| C[C@@H](NC(=O)N1C(=O)CC1SCc1cccnc1)c1ccccc1 (stereo partly drawn) |  | > 75 µM | > 75 µM | > 75 µM |
| CC(C)C[C@@H](COC1CC(=O)N1C(=O)NCc1ccccc1)NC(=O)[C@@H](NC(=O)OC(C)(C)C)C(C)(C)C (stereo partly drawn) |  | > 75 µM | 8.3 µM | > 75 µM |
| CC(C)C[C@@H](CSC1CC(=O)N1C(=O)NCc1ccccc1)NC(=O)[C@@H](NC(=O)OC(C)(C)C)C(C)(C)C (stereo partly drawn) |  | > 75 µM | 0.8 µM | > 75 µM |
| C[C@@H](NC(=O)N1C(=O)CC1SCc1ccccn1)c1ccccc1 (stereo partly drawn) |  | > 75 µM | > 75 µM | > 75 µM |
